US12421225B2, “Heteroaromatic amide derivative and medicament containing the same” (KAKEN PHARMACEUTICAL CO., LTD., priority 2018, dated 2025)

Columns and labels:
human Nav1.7 = human Nav1.7 (Homo sapiens (Human), UniProt Q15858); assay: Human Nav1.7 inhibitory activity evaluation (automated patch clamp QPatch16X, HEK293A cells stably expressing human Nav1.7 and human Navβ1); assay type: cell-based; settings: human Nav1.7, automated patch clamp
Method in brief: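 IC50 calculated from the concentration-response of inward current evoked by the second −10 mV, 50 ms depolarisation, which follows a 15 s conditioning step at roughly 30-40% inactivation and a 100 ms −120 mV interval. Cells: HEK293A expressing human Nav1.7/Navβ1, automated patch clamp, room temperature, 0.1% DMSO final.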

human Nav1.5 = human Nav1.5 (Homo sapiens (Human), UniProt Q14524); assay: Human Nav1.5 inhibitory activity evaluation (automated patch clamp QPatch16X, HEK293 cells stably expressing human Nav1.5); assay type: cell-based; settings: human Nav1.5, automated patch clamp
Method in brief: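 IC50 derived from concentration-response of inward current at the 20th of 20 action-potential-mimicking pulses (holding −80 mV, leak corrected with −100 mV step). HEK293 cells stably expressing human Nav1.5, room temperature, extracellular pH 7.4, intracellular CsF-based pH 7.3, 0.1% DMSO.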

human Nav1.7, sequence (Q15858 whole entry): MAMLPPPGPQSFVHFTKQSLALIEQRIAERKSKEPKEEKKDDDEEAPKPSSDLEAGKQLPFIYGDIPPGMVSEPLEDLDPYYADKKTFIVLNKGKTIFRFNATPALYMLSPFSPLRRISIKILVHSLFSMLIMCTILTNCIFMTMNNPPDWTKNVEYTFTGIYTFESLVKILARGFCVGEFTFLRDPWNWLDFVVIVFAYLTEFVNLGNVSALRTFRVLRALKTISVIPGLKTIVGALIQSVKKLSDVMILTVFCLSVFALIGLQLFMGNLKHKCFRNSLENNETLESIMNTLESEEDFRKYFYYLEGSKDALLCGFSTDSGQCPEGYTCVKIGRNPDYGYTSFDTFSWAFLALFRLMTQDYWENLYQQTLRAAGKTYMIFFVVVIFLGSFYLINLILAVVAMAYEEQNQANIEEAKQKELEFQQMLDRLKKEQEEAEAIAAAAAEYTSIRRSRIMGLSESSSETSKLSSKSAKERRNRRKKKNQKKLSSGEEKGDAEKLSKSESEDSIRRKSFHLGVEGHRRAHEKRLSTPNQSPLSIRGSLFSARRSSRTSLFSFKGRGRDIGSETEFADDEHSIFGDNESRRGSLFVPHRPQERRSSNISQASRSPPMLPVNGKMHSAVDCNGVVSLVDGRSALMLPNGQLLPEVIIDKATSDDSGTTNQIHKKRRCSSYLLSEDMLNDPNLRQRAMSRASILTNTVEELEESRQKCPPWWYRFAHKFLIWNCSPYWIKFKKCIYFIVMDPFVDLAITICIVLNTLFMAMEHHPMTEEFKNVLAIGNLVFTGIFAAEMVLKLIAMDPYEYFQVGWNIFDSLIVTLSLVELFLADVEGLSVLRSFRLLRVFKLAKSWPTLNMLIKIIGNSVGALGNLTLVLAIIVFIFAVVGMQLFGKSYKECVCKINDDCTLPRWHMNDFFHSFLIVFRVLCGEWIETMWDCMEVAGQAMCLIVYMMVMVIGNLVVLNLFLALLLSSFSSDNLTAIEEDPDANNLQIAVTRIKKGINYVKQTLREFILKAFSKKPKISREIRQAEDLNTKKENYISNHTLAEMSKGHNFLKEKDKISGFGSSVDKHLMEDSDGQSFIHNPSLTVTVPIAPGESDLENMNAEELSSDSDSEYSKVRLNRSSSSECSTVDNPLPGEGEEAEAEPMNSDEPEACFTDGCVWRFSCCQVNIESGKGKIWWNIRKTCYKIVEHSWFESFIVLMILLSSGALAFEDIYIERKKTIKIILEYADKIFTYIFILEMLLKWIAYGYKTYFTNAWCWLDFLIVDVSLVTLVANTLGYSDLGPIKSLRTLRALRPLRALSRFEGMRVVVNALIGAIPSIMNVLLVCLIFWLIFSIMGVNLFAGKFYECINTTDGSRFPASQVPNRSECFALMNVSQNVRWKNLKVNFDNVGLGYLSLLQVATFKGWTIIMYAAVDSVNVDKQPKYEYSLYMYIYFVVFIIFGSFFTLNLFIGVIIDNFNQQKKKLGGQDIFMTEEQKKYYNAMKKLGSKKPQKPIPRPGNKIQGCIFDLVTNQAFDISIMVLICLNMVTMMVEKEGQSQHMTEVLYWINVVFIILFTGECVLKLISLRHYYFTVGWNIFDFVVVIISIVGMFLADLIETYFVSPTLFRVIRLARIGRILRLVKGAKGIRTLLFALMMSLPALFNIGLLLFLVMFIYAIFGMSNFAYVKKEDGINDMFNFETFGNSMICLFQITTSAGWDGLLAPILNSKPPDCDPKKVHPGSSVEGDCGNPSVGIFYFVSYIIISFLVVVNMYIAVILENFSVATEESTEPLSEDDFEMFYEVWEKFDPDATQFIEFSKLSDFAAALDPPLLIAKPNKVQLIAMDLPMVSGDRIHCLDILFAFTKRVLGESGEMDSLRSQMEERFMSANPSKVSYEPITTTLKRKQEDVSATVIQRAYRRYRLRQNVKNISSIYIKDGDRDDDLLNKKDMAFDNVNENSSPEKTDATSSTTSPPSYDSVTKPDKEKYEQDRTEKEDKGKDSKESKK
human Nav1.7, sequence (Q07699 19-218 partner): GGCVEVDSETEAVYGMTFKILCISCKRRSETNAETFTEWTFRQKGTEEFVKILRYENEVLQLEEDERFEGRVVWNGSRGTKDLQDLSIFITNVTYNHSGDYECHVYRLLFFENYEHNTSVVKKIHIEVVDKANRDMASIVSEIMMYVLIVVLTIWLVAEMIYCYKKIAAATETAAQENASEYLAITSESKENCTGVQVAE
human Nav1.5, sequence (Q14524 whole entry): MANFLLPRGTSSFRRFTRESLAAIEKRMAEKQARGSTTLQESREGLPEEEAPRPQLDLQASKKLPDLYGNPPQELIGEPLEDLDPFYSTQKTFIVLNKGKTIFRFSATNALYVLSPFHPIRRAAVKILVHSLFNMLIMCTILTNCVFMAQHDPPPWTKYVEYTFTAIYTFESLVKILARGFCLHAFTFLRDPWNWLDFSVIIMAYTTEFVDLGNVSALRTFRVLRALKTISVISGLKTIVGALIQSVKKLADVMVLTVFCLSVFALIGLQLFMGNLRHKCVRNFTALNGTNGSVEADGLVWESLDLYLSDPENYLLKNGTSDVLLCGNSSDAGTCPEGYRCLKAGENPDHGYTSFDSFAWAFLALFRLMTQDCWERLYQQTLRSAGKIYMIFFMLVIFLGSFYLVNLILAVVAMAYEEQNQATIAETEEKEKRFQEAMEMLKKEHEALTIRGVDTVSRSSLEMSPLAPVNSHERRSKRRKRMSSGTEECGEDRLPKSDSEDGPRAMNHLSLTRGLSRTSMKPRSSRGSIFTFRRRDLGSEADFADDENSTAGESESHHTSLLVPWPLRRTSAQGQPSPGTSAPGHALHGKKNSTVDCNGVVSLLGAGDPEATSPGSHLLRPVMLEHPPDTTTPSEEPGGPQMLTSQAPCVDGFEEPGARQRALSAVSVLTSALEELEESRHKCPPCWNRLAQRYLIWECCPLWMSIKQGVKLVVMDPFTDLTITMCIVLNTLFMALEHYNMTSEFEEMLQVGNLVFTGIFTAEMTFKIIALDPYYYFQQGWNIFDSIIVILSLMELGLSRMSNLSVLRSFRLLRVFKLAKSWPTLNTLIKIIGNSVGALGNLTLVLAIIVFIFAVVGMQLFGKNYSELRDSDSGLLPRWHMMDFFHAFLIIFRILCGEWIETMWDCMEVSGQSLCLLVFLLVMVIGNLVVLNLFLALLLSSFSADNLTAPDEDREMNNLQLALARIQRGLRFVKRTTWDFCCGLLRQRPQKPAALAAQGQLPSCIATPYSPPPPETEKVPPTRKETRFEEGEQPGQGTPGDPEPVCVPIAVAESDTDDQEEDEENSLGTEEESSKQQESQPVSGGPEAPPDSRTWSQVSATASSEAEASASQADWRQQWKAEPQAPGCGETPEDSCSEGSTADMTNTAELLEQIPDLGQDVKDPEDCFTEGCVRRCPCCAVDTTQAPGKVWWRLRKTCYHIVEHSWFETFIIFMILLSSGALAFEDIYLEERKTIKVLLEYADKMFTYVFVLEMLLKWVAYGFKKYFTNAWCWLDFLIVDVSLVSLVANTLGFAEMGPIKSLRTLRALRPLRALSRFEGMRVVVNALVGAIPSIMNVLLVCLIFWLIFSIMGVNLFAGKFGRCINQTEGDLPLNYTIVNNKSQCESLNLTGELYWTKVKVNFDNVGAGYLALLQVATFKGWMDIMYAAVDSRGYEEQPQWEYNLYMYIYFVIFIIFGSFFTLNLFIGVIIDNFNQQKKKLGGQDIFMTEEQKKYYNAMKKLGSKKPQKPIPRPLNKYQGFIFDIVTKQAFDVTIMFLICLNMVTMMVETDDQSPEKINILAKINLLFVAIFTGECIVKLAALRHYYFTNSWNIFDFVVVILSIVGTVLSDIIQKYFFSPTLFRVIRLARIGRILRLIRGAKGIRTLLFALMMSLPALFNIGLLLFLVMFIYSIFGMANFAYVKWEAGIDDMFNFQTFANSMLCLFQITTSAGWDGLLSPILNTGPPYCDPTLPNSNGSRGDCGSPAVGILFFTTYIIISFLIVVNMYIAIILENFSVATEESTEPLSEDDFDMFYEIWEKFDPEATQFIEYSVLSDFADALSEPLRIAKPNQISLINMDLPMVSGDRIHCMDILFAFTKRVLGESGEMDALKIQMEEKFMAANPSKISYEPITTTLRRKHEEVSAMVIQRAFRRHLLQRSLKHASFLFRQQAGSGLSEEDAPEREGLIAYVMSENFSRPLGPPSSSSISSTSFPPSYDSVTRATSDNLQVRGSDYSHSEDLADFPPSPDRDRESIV

Structure (SMILES) | IC50 (human Nav1.7) [nM] | IC50 (human Nav1.5) [nM]
O=C(N[C@H]1COc2ccc(COCC(F)(F)F)cc2C1)c1cc2n(n1)CC(CCNCC(F)(F)F)O2 (some centres unmarked) [Example 231] | < 1000 | ≥ 3000
O=C(N[C@H]1COc2ccc(Cl)cc2C1)c1cc2n(n1)CC(CCN1CC(F)(F)C1)O2 (some centres unmarked) [Example 233] | < 1000 | < 1000
N#Cc1ccc2c(c1)C[C@@H](NC(=O)c1cc3n(n1)CC(CCSCC(F)(F)F)O3)CO2 (some centres unmarked) [Example 243] | < 1000 | ≥ 3000
N#Cc1ccc2c(c1)C[C@@H](NC(=O)c1cc3n(n1)CC(CCCOCC(F)(F)F)O3)CO2 (some centres unmarked) [Example 245] | < 1000 | 1000 to 3000
N#Cc1ccc2c(c1)C[C@@H](NC(=O)c1cc3n(n1)CCCC(c1ccccc1)O3)CO2 (some centres unmarked) [Example 251] | < 1000 | ≥ 3000
N#Cc1ccc2c(c1)C[C@@H](NC(=O)c1cc3n(n1)CCC(OC(F)(F)F)CO3)CO2 (stereo partly drawn) [Example 252, N—((R)-6-cyanochroman-3-yl)-6-(trifluoromethoxy)-5,6,7,8-tetrahydropyrazolo[5,1-b][1,3]oxazepine-2-carboxamide] | < 1000 | ≥ 3000
O=C(N[C@H]1COc2ccc(C(F)(F)F)cc2C1)c1nn2c(c1-c1ccn[nH]1)OCCCC2 [Example 258, (R)-3-(1H-pyrazol-5-yl)-N-(6-(trifluoromethyl)chroman-3-yl)-5,6,7,8-tetrahydropyrazolo[5,1-b][1,3]oxazepine-2-carboxamide] | < 1000 | < 1000
O=C(N[C@H]1COc2ccc(Cl)cc2C1)c1cc2n(n1)CCN(CCC(F)(F)F)C2 [Example 261] | < 1000 | < 1000
O=C(N[C@H]1COc2cccc(Cl)c2C1)c1cc2n(n1)CCN(CCC(F)(F)F)C2 [Example 262] | < 10000 | ≥ 3000
O=C(N[C@H]1COc2ccc(Cl)cc2C1)c1cc2n(n1)CCN(CCC1CC1)C2 [Example 263] | < 1000 | 1000 to 3000
O=C(N[C@H]1COc2ccc(C(F)(F)F)cc2C1)c1cc2n(n1)CCN(CCOC1CCC1)C2 [Example 265] | < 1000 | ≥ 3000
O=C(N[C@H]1COc2ccc(COCC(F)(F)F)cc2C1)c1cc2n(n1)CCN(CCOC1CCC1)C2 [Example 266] | < 1000 | ≥ 3000
O=C(N[C@H]1COc2ccc(C(F)(F)F)cc2C1)c1nn2c(c1-c1ccccn1)CN(CC(F)(F)F)CC2 [Example 267] | < 10000 | < 1000
N#Cc1ccc2c(c1)C[C@@H](NC(=O)c1cc3n(n1)CCN(Cc1ccc(F)cc1)C3)CO2 [Example 268, (R)—N-(6-cyanochroman-3-yl)-5-(4-fluorobenzyl)-4,5,6,7-tetrahydropyrazolo[1,5-a]pyrazine-2-carboxamide] | < 1000 | ≥ 3000
CC(C)(C)OCCN1CCn2nc(C(=O)N[C@H]3COc4ccc(C(F)F)cc4C3)cc2C1 [Example 272] | < 10000 | ≥ 3000
COc1cccc(CN2CCn3nc(C(=O)N[C@H]4COc5ccc(Cl)cc5C4)cc3C2)n1 [Example 273] | < 1000 | ≥ 3000
O=C(N[C@H]1COc2ccccc2C1)c1nn2c(c1-c1ccccc1)CN(CC(F)(F)F)CC2 [Example 275] | < 1000 | 1000 to 3000
O=C(N[C@H]1COc2ccccc2C1)c1cc2n(n1)CCN(C(=O)Cc1ccccc1)C2 [Example 276] | < 10000 | ≥ 3000
O=C(N[C@H]1COc2ccccc2C1)c1cc2n(n1)CCN(S(=O)(=O)c1cccc(C(F)(F)F)c1)C2 [Example 277] | < 10000 | ≥ 3000
N#Cc1ccc2c(c1)C[C@@H](NC(=O)c1cc3n(n1)CCN(c1ccc(F)cc1)C3)CO2 [Example 278] | < 1000 | 1000 to 3000

Structure (SMILES) | IC50 (human Nav1.7) [nM] | IC50 (human Nav1.5) [nM]
O=C(N[C@H]1COc2ccc(-c3cccnc3)cc2C1)c1cc2n(n1)CCN(c1ccc(F)cc1)C2 [Example 279] | < 1000 | ≥ 3000
N#Cc1ccc(N2CCn3nc(C(=O)N[C@H]4COc5ccc(Cl)cc5C4)cc3C2)nc1 [Example 280] | < 10000 | < 1000
CC(C)(C)N1CCn2nc(C(=O)N[C@H]3COc4ccc(Cl)cc4C3)cc2C1 [Example 281] | < 10000 | ≥ 3000
N#Cc1ccc2c(c1)C[C@@H](NC(=O)c1cc3n(n1)CCN(C1(c4ccc(F)cc4)CC1)C3)CO2 [Example 282] | < 1000 | 1000 to 3000
O=C(N[C@H]1COc2ccc(Cl)cc2C1)c1cc2n(n1)CCN(C1(C(F)(F)F)CC1)C2 [Example 283] | < 1000 | < 1000
CC(C)(c1ccccn1)N1CCn2nc(C(=O)N[C@H]3COc4ccc(Cl)cc4C3)cc2C1 [Example 285] | < 1000 | 1000 to 3000
O=C(N[C@H]1COc2ccccc2C1)c1cc2n(n1)CCC(c1ccccc1)N2 (some centres unmarked) [Example 287] | < 10000 | ≥ 3000
O=C(NC1COc2cccc(-c3ccccc3)c2C1)c1cn2c(n1)CCC(C(F)(F)F)C2 (centres unmarked) [Example 291] | < 10000 | ≥ 3000
O=C(NC1COc2cccc(C(F)F)c2C1)c1cn2c(n1)CCC(C(F)(F)F)C2 (centres unmarked) [Example 292] | < 1000 | 1000 to 3000
N#Cc1cccc2c1CC(NC(=O)c1cn3c(n1)CCC(C(F)(F)F)C3)CO2 (centres unmarked) [Example 294] | < 10000 | ≥ 3000
CCc1ccc2c(c1)CC(NC(=O)c1cn3c(n1)CCC(C(F)(F)F)C3)CO2 (centres unmarked) [Example 295] | < 1000 | ≥ 3000
O=C(c1cn2c(n1)CCC(C(F)(F)F)C2)N(Cc1ccccc1)C1COc2ccc(Br)cc2C1 (centres unmarked) [Example 298] | < 1000 | 1000 to 3000
COc1cccc(-c2c(C(=O)N[C@H]3COc4ccccc4C3)nc3n2CCCC3)n1 [Example 303] | < 1000 | 1000 to 3000
O=C(N[C@H]1COc2ccc(C(F)(F)F)cc2C1)c1nc2n(c1-c1ccccn1)CCCC2 [Example 305] | < 1000 | 1000 to 3000
O=C(c1cn2c(n1)CCC(c1cccc(N3CCOCC3)n1)C2)N1CCC(c2ccccc2)C1 (centres unmarked) [Example 307] | < 10000 | 1000 to 3000
CCNc1cccc(C2CCc3nc(C(=O)N4CCC(c5ccccc5)C4)cn3C2)n1 (centres unmarked) [Example 308] | < 10000 | 1000 to 3000
C[C@@H]1CN(c2cccc(C3CCc4nc(C(=O)N5CCC(c6ccccc6)C5)cn4C3)n2)C[C@H](C)O1 (some centres unmarked) [Example 311] | < 10000 | ≥ 3000
O=C(c1cn2c(n1)CCC(c1cccc(OC3COC3)n1)C2)N1CCC(c2ccccc2)C1 (centres unmarked) [Example 313] | < 10000 | ≥ 3000
COc1ncc(C(F)(F)F)cc1C1CCc2nc(C(=O)N3CCC(c4ccccc4)C3)cn2C1 (centres unmarked) [Example 316] | < 10000 | 1000 to 3000
COc1ccc(CCC2CCc3nc(C(=O)N4CCC(c5ccccc5)C4)cn3C2)cn1 (centres unmarked) [Example 317] | < 10000 | ≥ 3000

Structure (SMILES) | IC50 (human Nav1.7) [nM] | IC50 (human Nav1.5) [nM]
O=C(c1cn2c(n1)CCC(C1CCC(F)(F)CC1)C2)N1CCC1Cc1ccccc1 (centres unmarked) [Example 318] | < 10000 | ≥ 3000
O=C(N[C@H]1COc2ccccc2C1)c1cn2c(n1)CCC(OCCOC(F)(F)F)C2 (some centres unmarked) [Example 321] | < 10000 | ≥ 3000
O=C(NCCc1cccc(C(F)(F)F)c1)c1cn2c(n1)CNC(c1cccc(C(F)(F)F)n1)C2 (centres unmarked) [Example 324] | < 10000 | ≥ 3000
CN1Cc2nc(C(=O)NCCc3cccc(OCC(F)(F)F)c3)cn2CC1c1ccc(C(F)(F)F)cc1 (centres unmarked) [Example 325] | < 1000 | ≥ 3000
CN1Cc2nc(C(=O)NCCc3cccc(C(F)(F)F)c3)cn2CC1c1cccnc1C(F)(F)F (centres unmarked) [Example 326] | < 10000 | ≥ 3000
CN1Cc2nc(C(=O)NCCc3cccc(OCC4CCOCC4)c3)cn2CC1c1ccccc1 (centres unmarked) [Example 327] | < 10000 | ≥ 3000
CC(C)(C)CCC1Cn2cc(C(=O)N[C@H]3COc4ccccc4C3)nc2CN1 (some centres unmarked) [Example 328] | < 10000 | 1000 to 3000
CN1Cc2nc(C(=O)NCC(F)(F)c3cccc(C(F)(F)F)c3)cn2CC1c1ccccc1 (centres unmarked) [Example 331] | < 10000 | 1000 to 3000
CN(CCc1cccc(C(F)(F)F)c1)C(=O)c1cn2c(n1)CN(C)C(c1ccccc1)C2 (centres unmarked) [Example 332] | < 10000 | ≥ 3000
CN1Cc2nc(C(=O)NCC(F)c3cccc(C(F)(F)F)c3)cn2CC1c1cccc(C(F)(F)F)n1 (centres unmarked) [Example 333] | < 10000 | ≥ 3000
CN1Cc2nc(C(=O)NC3COc4cccc(C(F)(F)F)c4C3)cn2CC1c1ccccc1 (centres unmarked) [Example 334] | < 10000 | 1000 to 3000
O=C(c1cn2c(n1)CNC(c1cccc(OC(F)(F)F)c1)C2)N1CC[C@H](Oc2cccc(C(F)F)n2)C1 (some centres unmarked) [Example 336] | < 10000 | 1000 to 3000
O=C(c1cn2c(n1)CNC(c1cccc(OC(F)(F)F)c1)C2)N1CCOC(c2cccc(C(F)(F)F)c2)C1 (centres unmarked) [Example 337] | < 10000 | ≥ 3000
O=C(N[C@H]1COc2ccccc2C1)c1nc2n(c1-c1ccccc1)CCN(CC(F)(F)F)C2 [Example 338] | < 10000 | ≥ 3000
O=C(N[C@H]1COc2ccccc2C1)c1cn2c(n1)COC(c1ccccc1)C2 (some centres unmarked) [Example 340] | < 10000 | ≥ 3000
O=C(N[C@H]1COc2ccc(CC(F)(F)F)cc2C1)c1nc2n(c1-c1ccccn1)CCOC2 [Example 343] | < 1000 | 1000 to 3000
Cn1ccc(-c2c(C(=O)N[C@H]3COc4ccc(C(F)(F)F)cc4C3)nc3n2CCOC3)n1 [Example 345] | < 1000 | 1000 to 3000
O=C(N[C@H]1COc2ccccc2C1)c1cc2n(n1)CCC(c1ccccc1)O2 (some centres unmarked) [Example 349] | < 1000 | 1000 to 3000
